Experimental data taken from patent US8173606B2, “Sulfated oligosaccharide derivatives” (Progen Pharmaceuticals Limited, priority 2004, dated 2012).

Experiments:
heparanase = target: T1, heparanase (Homo sapiens, UniProt Q9Y251); experiment: Heparanase inhibition, Microcon ultrafiltration assay; type: biochemical; settings: 3H labelled HS, pH 5.0, 22° C., 2.5 h
T1 sequence (Q9Y251 158-543 limits assumed): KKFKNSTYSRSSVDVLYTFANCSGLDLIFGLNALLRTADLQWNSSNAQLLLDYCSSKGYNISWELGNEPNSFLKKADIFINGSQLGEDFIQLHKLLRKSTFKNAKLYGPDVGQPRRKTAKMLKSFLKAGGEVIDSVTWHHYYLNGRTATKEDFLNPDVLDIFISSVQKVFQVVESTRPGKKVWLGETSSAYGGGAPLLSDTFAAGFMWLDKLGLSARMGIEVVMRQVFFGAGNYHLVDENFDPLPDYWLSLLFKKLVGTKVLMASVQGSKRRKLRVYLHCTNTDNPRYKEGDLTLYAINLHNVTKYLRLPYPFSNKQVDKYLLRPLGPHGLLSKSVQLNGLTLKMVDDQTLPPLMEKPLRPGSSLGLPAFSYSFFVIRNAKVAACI
T1 sequence (Q9Y251 36-109 limits assumed): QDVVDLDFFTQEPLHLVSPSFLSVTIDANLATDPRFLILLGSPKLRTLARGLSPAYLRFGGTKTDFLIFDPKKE
Description: The heparanase assays were performed using a Microcon ultrafiltration assay. The assays rely on the principle of physically separating heparan sulfate (HS) that has been digested by heparanase from native HS to determine heparanase activity. The assay uses ultrafiltration devices (Microcon YM-10) to separate the smaller heparanase-cleaved HS fragments from native HS.
A reaction was set up with a volume of 90 μL, • 40 mM acetate buffer (pH 5.0) • 0.1 mg/mL BSA • 90 ng heparanase • 2.5 μM ^3H labelled HS • various concentrations of inhibitors.
The reactions were set up with all components except the ^3H labelled HS and allowed to equilibrate for 10 min at 22° C. The assays were then initiated by adding the HS and immediately 20 μL was taken, mixed with 80 μL of 10 mM phosphate (pH 7.0) and the 100 μL transferred to a Microcon YM-10 concentrator which was then centrifuged at approximately 14000 g for 5 min. The solution that passed through the membrane (filtrate) was retained. This sample was considered the time=0 sample. The assays (now 70 μL in volume) were allowed to react at 22° C. for 2.5 h and then the filtration step was repeated for three aliquots of 20 μL from each assay.
The time=0 filtrate and the three 2.5 h filtrate samples were counted for ^3H. The difference between the time=0 and the averaged 2.5 h samples gave the amount of heparanase activity. All inhibition assays were run with a heparanase standard assay which was identical to the assay composition above except no inhibitor was present and the amount of heparanase inhibition in the other assays determined by comparison with this standard.

[1] = Pharmacokinetic studies of 35S-labelled compounds after iv administration; settings: rat; for AUC0-12 h / C0 / Cl* (apparent) / Vd* (apparent) / t1/2* (apparent): in vivo, iv, 2.5 mg/kg; for k* (apparent): iv bolus 2.5 mg/kg
Description: The polyol precursors for PG500, 501, 503, 504, 506 and PI-88 (2 mg of each) were desiccated under vacuum over P2O5 for 3 days. Into each vial was syringed 50 μL of a stock solution of 1.77 mg (2.0 mCi) of ^35SO3.pyridine complex and 2 mg SO3.Me3N in 300 μL of anhydrous DMF (Aldrich, redried over freshly ignited 3 A molecular sieves). A further 600 μL of anhydrous DMF was added to the SO3 vial and was distributed to each sample vial. The samples were heated to 60° for 66 hr. SO3.Me3N (14 mg in 300 μL anhydrous DMF) was added to each vessel and the resulting solutions were heated to 60° overnight. The vials were cooled to room temperature and stored at −80° C. awaiting purification.
Each sample was quenched by addition of Na2CO3 (sat. aqu. adjusted to pH 8-9), evaporated to dryness and subjected to SEC (Biogel P2, 2.6×90 cm, flow rate 30 mL/hr, 5 min/fraction). Fractions containing desired material were detected using a G-M counter and DMB test followed by CE.
Male Sprague Dawley rats (250-350 g) were used. The animals were allowed free access to food and water before and during the experiments, during which they were maintained unrestrained in metabolism cages. Rats were anaesthetized with isoflurane (Forthane®). A catheter was inserted in the external jugular vein via an incision in the neck, and was passed under the skin to a second incision in the skin of the back (midline vicinity of the scapulae). This was then exteriorized with the protection of a light metal spring. The incision was closed and the spring fixed to the skin with Michel sutures so that the rats had full range of movement. The animals were carefully monitored during recovery (1-4 h).
All doses were administered as a bolus intravenous injection of 2.5 mg/kg in a dose volume of 2 mL/kg. The total amount of radioactivity administered to each rat was 0.5-10 μCi. The dose level used in this study is 10-fold lower than the no-effect dose previously established for acute toxicity of PI-88. Blood samples (˜250 μL) were collected predose and at 5, 15, 30, 45 min, and 1, 1.5, 2, 4, 8, 12, 24, 36 and 48 h after dosing. The blood samples were immediately centrifuged and the plasma collected. At completion of the experiments, the animals were killed by a lethal overdose of IV pentobarbitone anaesthetic (Nembutal®). Urine was collected from each animal at intervals of 0-12 h, 12-24 h and 24-48 h after dosing. Cage washings (˜15 mL of deionised water) were also collected. At the end of the experiment, bladder contents were aspirated from each animal and added to the 24-48 h voidings. Feces were collected over the same time intervals as the urine.
Aliquots of plasma (100 μL), urine and cage washings (500 μL) were transferred directly to 6 mL polypropylene scintillation vials for determination of radioactivity. Feces collected during each time period (from one animal dosed with each compound) were weighed and homogenised in 4 volumes of deionised water using a mechanical homogeniser. Approximately 1 g (accurately weighed) of this slurry was transferred to a 20 mL glass scintillation vial, 2 mL of tissue solubiliser added and the vials capped and incubated at 60° C. for at least 24 h. Radioactivity was measured following mixing of samples with Packard Ultima Gold liquid scintillation counting cocktail (2.0 mL for plasma and dose, 5.0 mL for urine and cage washings, 10 mL for feces). Counting was conducted on a Packard Tr-Carb liquid scintillation counter. Any result less than three times the background was considered less than the lower limit of quantitation not used in calculations. Plasma, urine and cage washings were counted in triplicate within 5 days of collection and were not corrected for radiochemical decay. Feces were processed as a batch at the completion of the study and the counts from these samples were corrected for radiochemical decay.

## Benzyl Glycoside Polysulfate [PG500]
heparanase
  IC50: 1.83 ± 0.483 µM
[1]
  AUC0-12 h: 12.6 ± 1.2 μg-eq/h · mL
  C0: 20.5 ± 1.3 μg-eq/mL
  Cl* (apparent): 3.32 ± 0.22 mL/min/kg
  Vd* (apparent): 38.4 ± 3.8 mL
  t1/2* (apparent): 49.8 ± 1.2 min
  k* (apparent): 0.836 ± 0.024 h⁻¹

## Octyl Glycoside Polysulfate [PG501]
heparanase
  IC50: 1.64 ± 0.406 µM
[1]
  AUC0-12 h: 29.7 ± 3.4 μg-eq/h · mL
  C0: 35.6 ± 3.1 μg-eq/mL
  Cl* (apparent): 1.39 ± 0.152 mL/min/kg
  Vd* (apparent): 22.9 ± 2.2 mL
  t1/2* (apparent): 66 ± 5.4 min
  k* (apparent): 0.633 ± 0.053 h⁻¹
